{"source": "paper PMC11882969", "about": "(Nature Communications, 2025)", "key": {"[1]": {"target": "panel of 320 non-olfactory GPCRs (Homo sapiens, UniProt Q9H1Y3)", "sequence (Q9H1Y3 whole entry)": "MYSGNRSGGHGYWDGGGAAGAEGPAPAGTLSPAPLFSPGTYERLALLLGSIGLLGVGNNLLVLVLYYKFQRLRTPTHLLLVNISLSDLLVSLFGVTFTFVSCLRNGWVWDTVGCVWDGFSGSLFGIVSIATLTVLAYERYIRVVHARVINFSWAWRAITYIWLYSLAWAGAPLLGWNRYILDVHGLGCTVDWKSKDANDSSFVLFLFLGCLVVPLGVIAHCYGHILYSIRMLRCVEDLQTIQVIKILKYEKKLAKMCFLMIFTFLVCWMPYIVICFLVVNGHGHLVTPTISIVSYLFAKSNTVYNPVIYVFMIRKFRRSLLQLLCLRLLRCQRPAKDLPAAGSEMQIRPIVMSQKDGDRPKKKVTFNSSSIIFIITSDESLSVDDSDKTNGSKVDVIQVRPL", "assay_type": "cell-based"}, "[2]": {"target": "panel of 320 non-olfactory GPCRs (Homo sapiens, UniProt P18089)", "sequence (P18089 whole entry)": "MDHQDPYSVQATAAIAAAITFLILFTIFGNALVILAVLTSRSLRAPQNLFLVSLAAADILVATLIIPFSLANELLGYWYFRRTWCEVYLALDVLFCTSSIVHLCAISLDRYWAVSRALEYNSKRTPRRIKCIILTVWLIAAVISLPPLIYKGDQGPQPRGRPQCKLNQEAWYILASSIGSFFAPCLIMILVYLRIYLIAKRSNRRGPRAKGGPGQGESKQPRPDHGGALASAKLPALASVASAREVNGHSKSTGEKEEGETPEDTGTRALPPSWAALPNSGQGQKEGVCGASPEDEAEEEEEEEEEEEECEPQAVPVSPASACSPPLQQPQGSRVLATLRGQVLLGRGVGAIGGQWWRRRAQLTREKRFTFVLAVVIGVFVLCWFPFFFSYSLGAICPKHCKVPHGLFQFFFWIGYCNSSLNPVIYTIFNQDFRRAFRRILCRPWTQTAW", "assay_type": "cell-based"}, "[3]": {"target": "panel of 320 non-olfactory GPCRs (Homo sapiens, UniProt P30939)", "sequence (P30939 whole entry)": "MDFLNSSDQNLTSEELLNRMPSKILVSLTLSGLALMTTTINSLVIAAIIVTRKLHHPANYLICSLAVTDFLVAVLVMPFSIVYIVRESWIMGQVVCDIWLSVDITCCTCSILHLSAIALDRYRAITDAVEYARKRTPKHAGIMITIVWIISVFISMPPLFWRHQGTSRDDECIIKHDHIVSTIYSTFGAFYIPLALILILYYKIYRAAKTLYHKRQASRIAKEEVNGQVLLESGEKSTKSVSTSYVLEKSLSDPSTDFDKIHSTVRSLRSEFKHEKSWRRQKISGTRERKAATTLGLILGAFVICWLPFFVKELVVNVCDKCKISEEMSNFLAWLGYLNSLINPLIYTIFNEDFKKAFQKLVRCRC", "assay_type": "cell-based"}, "[4]": {"target": "panel of 320 non-olfactory GPCRs (Homo sapiens, UniProt P49146)", "sequence (P49146 whole entry)": "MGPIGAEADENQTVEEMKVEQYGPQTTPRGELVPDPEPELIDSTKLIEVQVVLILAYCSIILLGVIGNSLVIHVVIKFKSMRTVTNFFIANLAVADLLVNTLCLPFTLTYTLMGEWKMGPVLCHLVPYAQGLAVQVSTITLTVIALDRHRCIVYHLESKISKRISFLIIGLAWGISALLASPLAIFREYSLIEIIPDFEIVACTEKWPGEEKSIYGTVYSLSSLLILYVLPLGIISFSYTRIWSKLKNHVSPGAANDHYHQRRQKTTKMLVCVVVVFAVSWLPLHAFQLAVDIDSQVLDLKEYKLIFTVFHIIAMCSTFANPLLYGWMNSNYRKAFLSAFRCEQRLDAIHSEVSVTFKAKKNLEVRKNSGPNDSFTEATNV", "assay_type": "cell-based"}, "[5]": {"target": "panel of 320 non-olfactory GPCRs (Homo sapiens, UniProt Q86SM8)", "sequence (Q86SM8 whole entry)": "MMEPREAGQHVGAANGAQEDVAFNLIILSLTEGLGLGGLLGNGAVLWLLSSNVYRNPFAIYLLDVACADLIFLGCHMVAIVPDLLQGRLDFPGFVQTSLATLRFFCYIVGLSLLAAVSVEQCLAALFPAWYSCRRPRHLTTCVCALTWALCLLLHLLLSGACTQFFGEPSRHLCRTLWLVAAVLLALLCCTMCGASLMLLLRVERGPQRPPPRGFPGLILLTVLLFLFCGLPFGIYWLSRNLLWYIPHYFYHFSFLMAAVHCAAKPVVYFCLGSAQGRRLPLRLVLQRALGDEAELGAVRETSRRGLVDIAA", "assay_type": "cell-based"}, "[6]": {"target": "panel of 320 non-olfactory GPCRs (Homo sapiens, UniProt P47211)", "sequence (P47211 whole entry)": "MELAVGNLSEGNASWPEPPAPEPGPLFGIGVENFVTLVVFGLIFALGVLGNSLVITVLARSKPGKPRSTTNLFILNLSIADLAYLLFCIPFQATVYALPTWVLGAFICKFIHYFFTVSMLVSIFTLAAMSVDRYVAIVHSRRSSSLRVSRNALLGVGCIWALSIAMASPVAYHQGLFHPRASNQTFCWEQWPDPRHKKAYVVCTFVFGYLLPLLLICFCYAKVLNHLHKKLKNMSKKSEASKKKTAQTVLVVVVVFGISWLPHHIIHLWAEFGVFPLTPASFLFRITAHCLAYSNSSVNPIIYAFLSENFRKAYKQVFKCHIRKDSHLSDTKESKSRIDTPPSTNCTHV", "assay_type": "cell-based"}, "[7]": {"target": "panel of 320 non-olfactory GPCRs (Homo sapiens, UniProt P41586)", "sequence (P41586 21-468)": "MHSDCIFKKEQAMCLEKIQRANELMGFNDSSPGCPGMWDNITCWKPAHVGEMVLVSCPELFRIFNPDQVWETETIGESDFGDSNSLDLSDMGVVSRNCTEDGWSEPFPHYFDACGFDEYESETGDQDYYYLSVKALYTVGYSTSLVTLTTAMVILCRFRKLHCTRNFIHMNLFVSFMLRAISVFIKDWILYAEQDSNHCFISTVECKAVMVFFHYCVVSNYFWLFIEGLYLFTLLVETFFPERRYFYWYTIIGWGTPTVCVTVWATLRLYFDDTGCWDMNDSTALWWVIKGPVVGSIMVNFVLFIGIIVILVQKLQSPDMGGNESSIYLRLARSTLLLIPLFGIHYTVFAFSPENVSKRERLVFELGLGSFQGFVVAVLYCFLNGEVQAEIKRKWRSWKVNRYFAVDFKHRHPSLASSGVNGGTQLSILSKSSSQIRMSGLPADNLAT", "assay_type": "cell-based"}, "[8]": {"target": "panel of 320 non-olfactory GPCRs (Homo sapiens, UniProt P25024)", "sequence (P25024 whole entry)": "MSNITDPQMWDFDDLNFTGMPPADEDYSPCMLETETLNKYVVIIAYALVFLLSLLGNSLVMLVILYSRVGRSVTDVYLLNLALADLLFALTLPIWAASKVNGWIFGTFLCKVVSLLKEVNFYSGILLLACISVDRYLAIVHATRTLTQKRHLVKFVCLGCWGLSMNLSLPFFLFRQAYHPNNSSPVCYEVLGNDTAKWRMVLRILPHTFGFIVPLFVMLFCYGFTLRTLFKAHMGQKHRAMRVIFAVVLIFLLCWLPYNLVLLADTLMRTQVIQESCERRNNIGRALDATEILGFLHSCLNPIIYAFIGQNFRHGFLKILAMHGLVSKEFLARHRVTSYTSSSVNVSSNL", "assay_type": "cell-based"}, "[9]": {"target": "panel of 320 non-olfactory GPCRs (Homo sapiens, UniProt P25021)", "sequence (P25021 whole entry)": "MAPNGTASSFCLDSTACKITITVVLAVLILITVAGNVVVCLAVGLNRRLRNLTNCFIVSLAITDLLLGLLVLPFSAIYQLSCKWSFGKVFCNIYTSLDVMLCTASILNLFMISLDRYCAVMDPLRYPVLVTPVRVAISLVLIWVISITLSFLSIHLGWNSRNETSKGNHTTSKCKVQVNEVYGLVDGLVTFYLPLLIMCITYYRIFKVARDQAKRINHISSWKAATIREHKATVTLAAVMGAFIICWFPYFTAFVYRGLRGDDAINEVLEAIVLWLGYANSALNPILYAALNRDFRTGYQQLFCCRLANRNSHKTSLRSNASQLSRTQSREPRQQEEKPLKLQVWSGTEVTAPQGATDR", "assay_type": "cell-based"}, "[10]": {"target": "panel of 320 non-olfactory GPCRs (Homo sapiens, UniProt Q16581)", "sequence (Q16581 whole entry)": "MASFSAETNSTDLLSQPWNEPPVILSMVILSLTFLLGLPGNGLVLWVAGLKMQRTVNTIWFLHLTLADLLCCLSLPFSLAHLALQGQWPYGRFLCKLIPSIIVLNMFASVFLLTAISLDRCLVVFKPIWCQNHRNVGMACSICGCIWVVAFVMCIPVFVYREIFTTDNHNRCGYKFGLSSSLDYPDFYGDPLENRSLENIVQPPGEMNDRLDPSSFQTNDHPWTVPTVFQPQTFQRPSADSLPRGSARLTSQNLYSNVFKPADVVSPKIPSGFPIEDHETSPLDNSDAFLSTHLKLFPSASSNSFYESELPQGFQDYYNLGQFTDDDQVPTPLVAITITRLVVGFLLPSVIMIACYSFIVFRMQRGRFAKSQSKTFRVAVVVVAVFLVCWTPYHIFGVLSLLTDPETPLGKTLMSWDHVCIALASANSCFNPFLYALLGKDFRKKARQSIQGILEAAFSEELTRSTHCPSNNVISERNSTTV", "assay_type": "cell-based"}, "mice": {"tested_on": "mice", "assay": "Hot plate, 52 °C", "assay_type": "in vivo, mouse"}, "[11]": {"assay": "Pharmacokinetics: plasma, brain, CSF", "details": "for concentration at 1 min / concentration at 5 min / concentration at 15 min / concentration at 30 min / concentration at 60 min / concentration at 120 min / concentration at 240 min / concentration at 360 min / concentration at 480 min: intraperitoneal"}, "[12]": {"details": "0.2 mg/kg, individual animals, FigS11b"}, "[13]": {"details": "male, CD-1, mouse, CSF, 0.2 mg/kg"}, "[14]": {"details": "male, CD-1, mouse, brain, 0.2 mg/kg"}, "[15]": {"details": "male, CD-1, mouse, plasma, 0.2 mg/kg"}, "[16]": {"details": "male, CD-1, mouse, plasma, ip, 0.2 mg/kg"}}, "note": "Where “and” joins values, the source holds several entries; their conditions need not be identical. Equal entries are not always repeated.", "data": [{"compound": "Cc1cc(C(=O)NC(C)(c2ccco2)c2ccco2)nn1-c1cccc(C(F)(F)F)c1", "note": "[‘4936]", "values": [{"measurement": "Fold of Basal RLU", "setting": "[1]", "result": "0.4 and 0.5"}, {"measurement": "Fold of Basal RLU", "setting": "[2]", "result": "0.9 and 1.2 and 1.6 and 1"}, {"measurement": "Fold of Basal RLU", "setting": "[3]", "result": "0.8 fold and 1.5 fold and 0.9 fold"}, {"measurement": "Fold of Basal RLU", "setting": "[4]", "result": "1.1 fold and 0.9 fold and 0.7 fold"}, {"measurement": "Fold of Basal RLU", "setting": "[5]", "result": "0.9 fold and 1.5 fold and 1.3 fold"}, {"measurement": "Fold of Basal RLU", "setting": "[6]", "result": "1.3 and 1 and 0.7 and 1.4"}, {"measurement": "Fold of Basal RLU", "setting": "[7]", "result": "0.5 fold and 0.9 fold and 0.7 fold and 0.8 fold"}, {"measurement": "Fold of Basal RLU", "setting": "[8]", "result": "0.9 fold and 1.4 fold and 1.3 fold"}, {"measurement": "Fold of Basal RLU", "setting": "[9]", "result": "1 and 1.2 and 1.1 and 0.6"}, {"measurement": "Fold of Basal RLU", "setting": "[10]", "result": "0.5 and 0.6 and 0.3"}, {"measurement": "Jump", "setting": "mice; [12]", "result": "2 (2×) and 4 and 0 (2×)"}, {"measurement": "Paw lick", "setting": "mice; [12]", "result": "27 and 43 and 44 and 13 and 16"}, {"measurement": "Paw shake", "setting": "mice; [12]", "result": "12 (2×) and 25 and 5 and 6"}, {"measurement": "Paw withdrawal", "setting": "mice; [12]", "result": "24 (2×) and 13 and 23 and 8"}, {"measurement": "hot plate response normalised to baseline (Figure4b), individual animals", "setting": "mice; Dose 0.05 mg/kg", "result": "102.582 and 109.155 and 97.1831 and 135.446 and 112.911"}, {"measurement": "hot plate response normalised to baseline (Figure4b), individual animals", "setting": "mice; Dose 0.1 mg/kg", "result": "324.648 and 182.16 and 233.803 and 158.685 and 147.887 and 257.981 and 154.695 and 178.169 and 197.418 and 155.869"}, {"measurement": "hot plate response normalised to baseline (Figure4b), individual animals", "setting": "mice; Dose 0.2 mg/kg", "result": "174.413 and 176.291 and 188.028 and 167.84 and 94.8357 and 253.991 and 380.986 and 174.648 and 215.493 and 126.291"}, {"measurement": "hot plate response normalised to baseline (Figure4b), individual animals", "setting": "mice; Dose 0.5 mg/kg", "result": "308.685 and 139.202 and 403.052 and 315.493 and 134.742 and 404.695 and 140.141 and 141.549 and 236.62 and 416.667"}, {"measurement": "lowest dose with significantly increased hot plate latency", "setting": "mice; i.p., 30 min after injection", "result": 0.5, "unit": "mg/kg"}, {"measurement": "brain AUC0→inf", "setting": "[11]; 0.2 mg/kg i.p., CD-1 mice", "result": 5610, "unit": "ng·min/mL"}, {"measurement": "brain Cmax", "setting": "[11]; 0.2 mg/kg i.p., CD-1 mice", "result": 26.2, "unit": "ng/g"}, {"measurement": "level in CSF", "setting": "[11]; 0.2 mg/kg i.p., CD-1 mice", "result": "but not CSF compartments"}, {"measurement": "concentration at 1 min", "setting": "[11]; [13]", "result": 0, "unit": "ng/mL"}, {"measurement": "concentration at 5 min", "setting": "[11]; [13]", "result": 0, "unit": "ng/mL"}, {"measurement": "concentration at 15 min", "setting": "[11]; [13]", "result": 0, "unit": "ng/mL"}, {"measurement": "concentration at 30 min", "setting": "[11]; [13]", "result": 0, "unit": "ng/mL"}, {"measurement": "concentration at 60 min", "setting": "[11]; [13]", "result": 0, "unit": "ng/mL"}, {"measurement": "concentration at 120 min", "setting": "[11]; [13]", "result": 0, "unit": "ng/mL"}, {"measurement": "concentration at 240 min", "setting": "[11]; [13]", "result": 0, "unit": "ng/mL"}, {"measurement": "concentration at 360 min", "setting": "[11]; [13]", "result": 0, "unit": "ng/mL"}, {"measurement": "concentration at 480 min", "setting": "[11]; [13]", "result": 0, "unit": "ng/mL"}, {"measurement": "concentration at 1 min", "setting": "[11]; [14]", "result": 0, "unit": "ng/g"}, {"measurement": "concentration at 5 min", "setting": "[11]; [14]", "result": 2.39, "unit": "ng/g"}, {"measurement": "concentration at 15 min", "setting": "[11]; [14]", "result": 12, "unit": "ng/g"}, {"measurement": "concentration at 30 min", "setting": "[11]; [14]", "result": 25.2, "unit": "ng/g"}, {"measurement": "concentration at 60 min", "setting": "[11]; [14]", "result": 26.1, "unit": "ng/g"}, {"measurement": "concentration at 120 min", "setting": "[11]; [14]", "result": 17.9, "unit": "ng/g"}, {"measurement": "concentration at 240 min", "setting": "[11]; [14]", "result": 6.06, "unit": "ng/g"}, {"measurement": "concentration at 360 min", "setting": "[11]; [14]", "result": 7.4, "unit": "ng/g"}, {"measurement": "concentration at 480 min", "setting": "[11]; [14]", "result": 1.98, "unit": "ng/g"}, {"measurement": "half-life", "setting": "[11]; male, CD-1, mouse, brain, ip, 0.2 mg/kg", "result": 2.08, "unit": "h"}, {"measurement": "concentration at 1 min", "setting": "[11]; [15]", "result": 0, "unit": "ng/mL"}, {"measurement": "concentration at 5 min", "setting": "[11]; [15]", "result": 0.512, "unit": "ng/mL"}, {"measurement": "concentration at 15 min", "setting": "[11]; [15]", "result": 1.63, "unit": "ng/mL"}, {"measurement": "concentration at 30 min", "setting": "[11]; [15]", "result": 4.54, "unit": "ng/mL"}, {"measurement": "concentration at 60 min", "setting": "[11]; [15]", "result": 3.59, "unit": "ng/mL"}, {"measurement": "concentration at 120 min", "setting": "[11]; [15]", "result": 3.55, "unit": "ng/mL"}, {"measurement": "concentration at 240 min", "setting": "[11]; [15]", "result": 1.18, "unit": "ng/mL"}, {"measurement": "concentration at 360 min", "setting": "[11]; [15]", "result": 0.867, "unit": "ng/mL"}, {"measurement": "concentration at 480 min", "setting": "[11]; [15]", "result": 0, "unit": "ng/mL"}, {"measurement": "AUC(0-inf)", "setting": "[11]; [16]", "result": 14.4, "unit": "ng·h/mL"}, {"measurement": "Cmax", "setting": "[11]; [16]", "result": "4.5 ng/mL and 11 nM"}]}]}
